In article PMC5976863, “The Active Components of Fuzheng Huayu Formula and Their Potential Mechanism of Action in Inhibiting the Hepatic Stellate Cells Viability – A Network Pharmacology and Transcriptomics Approach” (Frontiers in Pharmacology, 2018) one finds Kd data, which are given here for 4 molecules.

The target in the test is T1, peroxisome proliferator activator receptor gamma (PPARG) (Homo sapiens, UniProt P37231).
T1 sequence (P37231 1-505): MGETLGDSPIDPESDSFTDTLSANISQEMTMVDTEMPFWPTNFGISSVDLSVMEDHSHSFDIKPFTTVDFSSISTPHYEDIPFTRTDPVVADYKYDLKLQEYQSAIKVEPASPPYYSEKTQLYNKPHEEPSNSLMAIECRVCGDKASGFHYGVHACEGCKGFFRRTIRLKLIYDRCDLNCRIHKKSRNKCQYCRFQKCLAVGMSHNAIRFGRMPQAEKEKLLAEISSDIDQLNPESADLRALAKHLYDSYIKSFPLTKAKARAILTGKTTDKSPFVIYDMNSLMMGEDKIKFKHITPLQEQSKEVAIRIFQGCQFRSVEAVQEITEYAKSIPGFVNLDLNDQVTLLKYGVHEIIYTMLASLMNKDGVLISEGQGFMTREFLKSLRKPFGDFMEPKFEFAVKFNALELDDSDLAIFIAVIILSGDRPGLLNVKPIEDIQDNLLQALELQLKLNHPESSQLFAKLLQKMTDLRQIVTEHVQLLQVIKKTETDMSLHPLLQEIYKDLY
The test is described as follows: SPR (Biacore T200), PPARG immobilized on CM5 chip. The class given is binding.

Read-outs that look alike come from different tables or passages of the source.

Take `COc1cc2c(c(OC)c1OC)-c1c(cc3c(c1OC)OCO3)CC(C)C(C)C2` (stereo not shown) [schisandrin B]: the Kd (read-out: Kd) turned out to be 22 µM. Same read-out and setting: to `O=C(/C=C/c1ccc(O)c(O)c1/C=C/c1ccc(O)c(O)c1)O[C@H](Cc1ccc(O)c(O)c1)C(=O)O` [Salvianolic acid A] belongs 3.5 µM. Molecule `CCCCC/C=C/C=C1/C(=O)C=C[C@@H]1C/C=C\CCCC(=O)O` [15d-PGJ2, reference compound] yielded a Kd of 9.8 µM.

With `O=c1c(O)c(-c2ccc(O)cc2)oc2cc(O)cc(O)c12` [Kaempferol], the dissociation constant (Kd) (read-out: Kd) came out at 51 µM.
